# Laboratory results published in BindingDB's records for doi:10.1016/j.bmcl.2003.09.065 (Northwestern University, 2003).
# Test: KI for pyridoxal 5'-phosphate (PLP)-dependent Gamma-amino-N-butyrate transaminase at pH 7.4
smiles,measurement,value
"NC1C=C(C(=O)O)OC1 (stereo unspecified) [4-Amino-4,5-dihydro-furan-2-carboxylic acid anion]",Ki,6.3 µM
